The text below walks through data of PubChem BioAssay (NCI).

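Five compound concentrations were applied to cells in 96-well plates for 48 hours; endpoints were derived by simple linear interpolation of the resulting dose-response curve. GI50: concentration for 50% inhibition of growth. TGI marks complete inhibition of growth.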

Among the test systems are HL-60(TB) leukemia; SN12C renal; SW-620 colon; K-562 leukemia; IGROV1 ovarian; MALME-3M melanoma; NCI-H460 lung; SK-OV-3 ovarian; SF-295 CNS; NCI-H522 lung.
What all share (experiment): DTP human tumour cell line panel, 48 h

Take `CCOC(=O)N1CCN(CCCCCOc2ccccc2C2CCCCC2)CC1`: the GI50 (usually the concentration giving 50% growth inhibition) in the test with HL-60(TB) leukemia was 1.39 µM; in the test on SN12C renal, 6.34 µM; in the test on SW-620 colon, 3.08 µM; in the test on K-562 leukemia, 1.97 µM; with IGROV1 ovarian, 10.4 µM; in the test with MALME-3M melanoma, 4.91 µM. Also, the results for the GI50 in the test on NCI-H460 lung, in the test on SK-OV-3 ovarian and with SF-295 CNS were 5 µM, 6.08 µM and 2.65 µM, respectively. The total growth inhibition concentration (TGI) (usually the concentration giving total growth inhibition) in the test on HL-60(TB) leukemia worked out at 3.5 µM; in the test on SN12C renal, 22.2 µM; in the test with SW-620 colon, 9.81 µM; in the test on K-562 leukemia, 10.9 µM; with IGROV1 ovarian it was 23.1 µM; in the test on MALME-3M melanoma, 19.2 µM. Besides, the results for the TGI in the test with NCI-H460 lung, in the test with SK-OV-3 ovarian and with SF-295 CNS were 17.7 µM, 19.1 µM and 13.9 µM, respectively.

For `CC(=O)[CH-]C(=O)c1ccccc1.CC(=O)[CH-]C(=O)c1ccccc1.CC1(C)OCC(C2OC3OC(C)(C)OC3C2[O-])O1.CC[O-].[Ti+4]` (stereo unspecified), the GI50 with NCI-H522 lung is 16.5 µM; in the test with SN12C renal it was 15.6 µM; in the test with SW-620 colon, 15.6 µM; in the test on K-562 leukemia, 15.3 µM; with IGROV1 ovarian it was 17.9 µM; in the test with MALME-3M melanoma it was 13.4 µM. Also, the GI50 was 10.8 µM with NCI-H460 lung, 21.9 µM with SK-OV-3 ovarian and 17.1 µM with SF-295 CNS. Also, the TGI in the test with NCI-H522 lung was found to be 30.8 µM; in the test on SN12C renal, 33.1 µM; with SW-620 colon it was 44.5 µM; in the test with K-562 leukemia, 62.6 µM; with IGROV1 ovarian it was 33.5 µM; in the test with MALME-3M melanoma, 27.7 µM. The results for the TGI in the test with NCI-H460 lung, with SK-OV-3 ovarian and with SF-295 CNS were 24.8 µM, 61.1 µM and 31.6 µM, respectively.

`Clc1ccc2c(c1)N(c1ncnc3ccc(-c4cnc5[nH]ncc5c4)cc13)CC2`: the GI50 in the test with NCI-H522 lung is 2.23 µM; in the test with HL-60(TB) leukemia it was 0.411 µM; in the test on SN12C renal it was 0.407 µM; with IGROV1 ovarian it was 0.11 µM; in the test with MALME-3M melanoma, 1.12 µM; in the test on NCI-H460 lung it was 0.463 µM. Further, in the test with SF-295 CNS, the GI50 was 0.632 µM. Also, the TGI is more than 100 µM in the test with NCI-H522 lung; more than 100 µM in the test on HL-60(TB) leukemia; more than 100 µM with SN12C renal; 0.554 µM in the test with IGROV1 ovarian; more than 100 µM in the test with MALME-3M melanoma; more than 100 µM in the test with NCI-H460 lung. In the test on SF-295 CNS, this compound displayed a TGI of more than 100 µM.

Regarding `O=C(O)c1ccccc1C(=O)c1ccc2c(c1)Cc1ccccc1-2`, the TGI with NCI-H522 lung, in the test on SN12C renal, with SW-620 colon, in the test on K-562 leukemia, in the test on IGROV1 ovarian and with MALME-3M melanoma was more than 100 µM throughout. Also, the concentration for total growth inhibition (TGI) in the test on NCI-H460 lung, in the test with SK-OV-3 ovarian and in the test with SF-295 CNS was more than 100 µM throughout.

With `CCCCCCCCCCCCCC[n+]1cccc(C(N)=O)c1`, the GI50 is 1.31 µM in the test on NCI-H522 lung; 1.86 µM in the test with SN12C renal; 1.98 µM in the test on SW-620 colon; 1.88 µM in the test with K-562 leukemia; 0.197 µM with IGROV1 ovarian; 1.75 µM with MALME-3M melanoma. Moreover, the GI50 in the test on NCI-H460 lung was 3.09 µM; with SK-OV-3 ovarian, 1.9 µM; in the test with SF-295 CNS, 1.69 µM. Besides, the TGI in the test on NCI-H522 lung is 6.24 µM; in the test with SN12C renal, 8.34 µM; with SW-620 colon, 6.72 µM; with K-562 leukemia it was 6.53 µM; with IGROV1 ovarian it was 0.681 µM; in the test with MALME-3M melanoma, 4.21 µM. The total growth inhibition concentration (TGI) was 10.9 µM with NCI-H460 lung, 8.13 µM in the test on SK-OV-3 ovarian and 4.23 µM with SF-295 CNS.

Turning to `N#CC(C#N)=c1c2nsnc2c(=C(C#N)C#N)c2nsnc12`, the TGI in the test with NCI-H522 lung was found to be 3.51 µM; with HL-60(TB) leukemia it was 4.64 µM; in the test with SW-620 colon it was 3.05 µM; in the test with MALME-3M melanoma, 3.11 µM; in the test on NCI-H460 lung, 3.86 µM; in the test with SF-295 CNS, 3.33 µM.

`CC(C)(C)c1ccc(OC2CCO2)cc1` (stereo unspecified): the TGI was 52.5 µM in the test on NCI-H522 lung; 38.1 µM in the test with SN12C renal; 30.9 µM with SW-620 colon; 39.1 µM in the test with K-562 leukemia; more than 100 µM with IGROV1 ovarian; more than 100 µM in the test on MALME-3M melanoma. The TGI in the test with NCI-H460 lung is 53.3 µM; with SK-OV-3 ovarian, more than 100 µM; in the test on SF-295 CNS it was more than 100 µM.

For `Cc1ccc(C)c(N2C(=O)C(=O)C(c3nc4ccccc4s3)C(=Nc3cccc4c(=O)[nH][nH]c(=O)c34)C2=O)c1` (stereo unspecified), the TGI in the test on HL-60(TB) leukemia, with SN12C renal, in the test on SW-620 colon, in the test on K-562 leukemia, in the test with IGROV1 ovarian and in the test with MALME-3M melanoma was more than 100 µM each time. For the same compound, the total growth inhibition concentration (TGI) in the test with NCI-H460 lung, in the test on SK-OV-3 ovarian and in the test with SF-295 CNS was more than 100 µM each time.

Consider `Cc1ccc(NC(=O)/C(Cc2nc3ccc([N+](=O)[O-])cc3[nH]c2=O)=N\NC(=O)C[n+]2ccccc2)c(C)c1`, for which the total growth inhibition concentration (TGI) was 61.6 µM in the test on NCI-H522 lung; 81.8 µM in the test with HL-60(TB) leukemia; 98.1 µM with SN12C renal; more than 100 µM in the test on SW-620 colon; more than 100 µM with IGROV1 ovarian; more than 100 µM in the test with NCI-H460 lung. Besides, the TGI is 56.5 µM in the test with SK-OV-3 ovarian and more than 100 µM with SF-295 CNS.

As to `CC(C)(C)OC(=O)NC1CCCC1=O` (stereo unspecified), the total growth inhibition concentration (TGI) in the test with NCI-H522 lung, in the test on SN12C renal, in the test on SW-620 colon, with K-562 leukemia, in the test on MALME-3M melanoma and in the test with NCI-H460 lung was more than 100 µM throughout. Moreover, the concentration for total growth inhibition (TGI) in the test with SK-OV-3 ovarian and with SF-295 CNS was more than 100 µM each time.

Turning to `Cc1cccc(C)c1N1C(=O)C(=O)C(c2nc3ccccc3s2)/C(=N/NC(=O)NN)C1=O` (stereo unspecified), the TGI in the test on NCI-H522 lung, with HL-60(TB) leukemia, in the test with SN12C renal, with SW-620 colon, in the test with IGROV1 ovarian and in the test on MALME-3M melanoma was more than 100 µM in each case. Also, the total growth inhibition concentration (TGI) in the test on NCI-H460 lung, with SK-OV-3 ovarian and in the test on SF-295 CNS was more than 100 µM throughout.
